Reference: patent publication US6800772B2, “Carboxylic acids and derivatives thereof and pharmaceutical compositions containing them” (Yissum Research Development Company of the Hebrew …, priority 1997, dated 2004)
Blank lines part the entries; values can stand above or below the compound they belong to.

How the values were obtained:
[1] = test system: Rats; assay: Experiment II: rats fed chow supplemented with compound for 5 days; plasma triglycerides, apo C-III, insulin; format: in vivo
Experimental: (§1) Rats (n=5 for each treatment group) were fed ad libitum on purina chow for 5 days, the diet being supplemented with either γ,γ′-methyl substituted α,ω hexadecanedioic acid (formula (II). Ex. 3) or β,β′-methyl substituted α,ω-hexadecanedioic acid (U.S. Pat. No. 4,634,795) at a dosage of 0.09% (w/w) in the diet. The biological effect in vivo was evaluated by following plasma triglycerides, plasma apolipoprotein(apo)C-III, plasma insulin and the steady state concentrations (Css) of the respective drugs in plasma. Fold efficacy of the γ,γ′-substituted compound (Ex. 3) relative to the β,β′-substituted compound was calculated by normalizing the observed effect by the respective Css attained.

[2] = test system: Rats; assay: Experiment I: rats fed chow supplemented with compound for 6 days; plasma lipids, glucose, food intake; format: in vivo; conditions: 0.1% (w/w) in diet
Experimental: Rats (n=5 for each treatment group) were fed ad libitum on Purina chow for 6 days, the diet being supplemented with 0.1% (w/w) γ,γ′-methyl substituted α,ω-dioic acids of formula (II) (Ex. 1, Ex. 3, Ex. 4) in the diet. The biological effect in vivo was evaluated by following food intake, plasma triglycerides, plasma cholesterol and plasma glucose.

[3] = test system: Rats; assay: Experiment III: conditions as in Experiment II; plasma lipids, apo C-III, glucose, insulin; format: in vivo
Experimental: as §1
Conditions as in Experiment II using α,α′-methyl-substituted α,ω-tetradecanedioic acid.
Fold efficacy represents the respective effect induced by the α,α′-substituted compound (Ex. 5) relative to that of the β,β′-substituted compound.

[4] = observed effect normalized by respective Css, relative to β,β′-substituted compound
[5] = rats, 0.09% (w/w) in diet, 5 days
[6] = effect of α,α′-substituted compound relative to β,β′-substituted compound
[7] = rats, conditions as in Experiment II

SMILES: CC(C)(CCCCCCCCC(C)(C)CCC(=O)O)CCC(=O)O [Ex. 3, 4,4,13,13-Tetramethylhexadecanedioic Acid]
- Fold efficacy (γ,γ/β,β), plasma apo C-III [1, 4]: 7.7
- Fold efficacy (γ,γ/β,β), plasma insulin [1, 4]: 15.2
- Fold efficacy (γ,γ/β,β), plasma triglycerides [1, 4]: 8.2
- Plasma apo C-III [1, 5]: 12.0 ± 4.6 mg %
- Plasma insulin [1, 5]: 16 ± 6.1 µU/mL
- Plasma triglycerides [1, 5]: 19.9 ± 7.4 mg %
- Food intake [2]: 19.3 ± 1.1 g/day
- Plasma cholesterol [2]: 62.4 ± 13.3 mg %
- Plasma glucose [2]: 138.8 ± 2.7 mg %
- Plasma triglycerides [2]: 28.8 ± 7.4 mg %

SMILES: CC(C)(CCCCCCCCCCCCC(C)(C)C(=O)O)C(=O)O [Ex. 6, 2,2,15,15-Tetramethylhexadecanedioic Acid]
- Fold efficacy (α,α/β,β), plasma apo C-III [3, 6]: 3.7
- Fold efficacy (α,α/β,β), plasma cholesterol [3, 6]: 1.2
- Fold efficacy (α,α/β,β), plasma glucose [3, 6]: 1.1
- Fold efficacy (α,α/β,β), plasma insulin [3, 6]: 1.0
- Fold efficacy (α,α/β,β), plasma triglycerides [3, 6]: 1.78
- Plasma apo C-III [3, 7]: 17 ± 14 mg %
- Plasma cholesterol [3, 7]: 69.5 ± 9.7 mg %
- Plasma glucose [3, 7]: 104 ± 4 mg %
- Plasma insulin [3, 7]: 24.2 ± 7.3 µU/mL
- Plasma triglycerides ([3]; rats, conditions as in Experiment II (0.09% w/w in diet, 5 days)): 44.5 ± 14.0 mg %

- melting point: 88 to 89 °C
SMILES: CC(C)(CCCCCCC(C)(C)CCC(=O)O)CCC(=O)O [Ex. 1, 4,4,11,11-Tetramethyltetradecanedioic Acid]
- Food intake [2]: 18.6 ± 2.1 g/day
- Plasma cholesterol [2]: 64.1 ± 12.0 mg %
- Plasma glucose [2]: 127.8 ± 6.6 mg %
- Plasma triglycerides [2]: 24.8 ± 3.9 mg %

- melting point: 71 to 72 °C
SMILES: CC(C)(CCCCCCCCCCC(C)(C)CCC(=O)O)CCC(=O)O [Ex. 4, 4,4,15,15-Tetramethyloctadecanedioic acid]
- Food intake [2]: 19.1 ± 1.2 g/day
- Plasma cholesterol [2]: 56.8 ± 10.8 mg %
- Plasma glucose [2]: 139.0 ± 9.0 mg %
- Plasma triglycerides [2]: 29.3 ± 10.4 mg %
